We go through 12 compounds from article PMC11314199, “Design, Synthesis, and Biological Evaluations of Novel Thiazolo[4,5-d]pyrimidine Corticotropin Releasing Factor (CRF) Receptor Antagonists as Potential Treatments for Stress Related Disorders and Congenital Adrenal Hyperplasia (CAH)” (Molecules, 2024).

Assay [1] addresses T1, human CRF1 receptors (Homo sapiens, UniProt P34998).
T1 construct: expressed in transfected cells
T1 sequence (P34998 24-415): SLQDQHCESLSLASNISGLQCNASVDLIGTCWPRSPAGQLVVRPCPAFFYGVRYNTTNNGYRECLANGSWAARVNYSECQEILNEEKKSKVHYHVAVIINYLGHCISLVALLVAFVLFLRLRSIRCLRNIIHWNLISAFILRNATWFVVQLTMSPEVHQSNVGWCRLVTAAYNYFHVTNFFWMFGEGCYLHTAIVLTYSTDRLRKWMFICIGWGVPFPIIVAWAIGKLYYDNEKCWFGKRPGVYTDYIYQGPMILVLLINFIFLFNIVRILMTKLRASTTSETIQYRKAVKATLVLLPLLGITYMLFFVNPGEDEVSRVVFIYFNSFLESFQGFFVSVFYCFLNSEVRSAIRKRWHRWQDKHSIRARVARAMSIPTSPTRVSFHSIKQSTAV
The assay is described as follows: Primary screening: inhibition of specific [125I]-Tyr0 sauvagine binding at a single concentration of 100 nM. Particulars: 100 nM test compound; membranes from HEK 293 cells stably expressing CRF1 receptors. Here is the method:
An investigation of the specific binding was carried out in membrane homogenates extracted from human embryonic kidney (HEK 293) cells stably expressing CRF1 receptors, a standard methodology previously detailed in several of our published works. This experimental approach closely adheres to the original Gkountelias et al. procedure.
The CRF1 receptor binding affinities for final target compounds 1–23 were evaluated. First, the ability of the entire test compounds to inhibit the specific binding of the radiolabelled ligand [^125I]-Tyr^0 sauvagine to membranes from HEK 293 cells stably expressing the CRF1 receptors was evaluated at a single concentration of 100 nM.
Figure 5 % inhibition of [^125I]-Try^0 sauvagine-specific binding by 100 nM of test compounds on membranes from HEK293 stably expressing human CRF1 receptors. In the absence of the test compound, the inhibition is 0%.
In this protocol, a radiolabeled agonist, which is [^125I]-Tyr^0-sauvagine is used. The cell culture medium that was used to grow these cells consisted of DMEM/F12 (1:1) supplemented with 10% bovine calf serum, 3.15 g/L glucose, and […] of the antibiotic geneticin. The cells were then incubated at a temperature of 37 °C with 5% CO2. After a suitable time was given to grow the expected number of cells to the required cell density, the cells were washed with phosphate-buffered saline (PBS) at a neutral pH of 7.2–7.3. This was followed by treatment with 2 mM EDTA containing PBS (PBS/EDTA). The suspension of cells was pitted under centrifugation at a speed of 1000× g for a period of 5 min, after which the resulting pellets were allowed to be homogenized in 1.5 mL of buffer H with the following composition: 20 mM HEPES, 10 mM MgCl2, 2 mM EGTA, 0.2 mg/mL bacitracin antibiotic, and 0.93 mg/mL aprotinin at pH 7.2 at 4 °C. The homogenizer used was a Janke & Kunkel IKA Ultra Turrax T25 homogenizer (IKA Werke GmbH & Co. KG, Staufen, Germany). The homogenates were then put into a centrifuge to be centrifuged at a speed of 16,000× g, for a period of 10 min, at 4 °C. The resulting membrane pellets were again suspended in a homogenizer in 1 mL of buffer B, which is buffer H containing BSA (0.1%) at a pH of 7.2 at 20 °C. After that, the membrane suspensions were diluted using buffer B and 50 μL aliquots of the suspensions and 20–25 pM of the radiolabeled ligand [^125I]-Tyr^0sauvagine with (test) and then without (positive control) the compounds to be evaluated at a single concentration of 100 nM.

For assay [2], the target named is T1, human CRF1 receptors. The assay is described as follows: Competition binding of [125I]-Tyr0 sauvagine under equilibrium conditions (secondary assay). Conditions: [125I]-Tyr0 sauvagine competition, HEK 293 membranes expressing CRF1 receptors. Here is the method: In the second assay, the inhibitory effects measured by the lead compounds were compared to those of the standard drug antalarmin.
Figure 6 Competitive binding isotherms of compounds 2, 5, and 14 (a), compounds 10 and 23 (b), compounds 19 and 20 (c) and 21 and 22 (d) to human CRF1 receptors. Antalarmin was used as a standard drug.
In this competitive binding assay, different and increasing concentrations of the test compounds were used. The final volume of the tubes was adjusted to 0.2 mL using buffer B (the composition mentioned earlier). The test mixtures were then incubated at a temperature of 21 °C for a period of two hours. Then it was filtered through presoaked Whatman 934AH filter papers (in a solution of 0.3% polyethylene imine for 1 h at a temperature of 4 °C). The filter papers were then washed with a solution of 0.5 mL of ice-cold PBS containing 0.01% Triton X-100, and the washing process was repeated three times at pH 7.1. To measure the radioactivity, a gamma radiation counter was utilized. The quantity of membranes used was adjusted to make sure that the specific binding is always equal to or less than 10% of the total concentration of the added radiolabeled sauvagine. The specific [^125I]-Tyr^0-sauvagine binding was defined as the total binding minus the non-specific binding in the presence of 1000 nM of the standard antagonist Antalarmin. Non-linear regression analysis was used for data analysis, and Log IC50 values for the test compounds in comparison to the standard antagonist antalarmin were calculated by fitting the data from the competition studies into a one-site competition model. The statistical analysis was performed using Prism 4.0 (GraphPad Software, San Diego, CA, USA).
Statistical analysis was performed using Prism 4.0 (Graph Pad Software, San Diego, CA, USA). Non-linear regression analysis was used in the competitive binding studies. Log IC50 values were calculated by fitting the data from the competition studies to a one-site competition model.

For another assay, the system named is CRF1R. Details: method as in PMID 7846062. Conditions: cited from earlier work.

What is called inhibition is the share of the control response that was lost under treatment. Low values mean a response near the control, high ones a response far below the control. One may read the IC50 as the concentration needed to halve the response being measured.

Where two headings read alike, the source gives them in different places.

Regarding `CCCN(CCC)c1nc(C)nc2c1sc(=NC)n2-c1ccc(Cl)cc1Cl` [Compound 2, 7-(N,N-Dipropylamino)-2-(methylimino)-5-methyl-3-(2,4-dichlorophenyl)-2,3-dihydrothiazolo[4,5-d]pyrimidine], on human CRF1 receptors [1], the inhibition at 0.1 µM was more than 50%. The half-maximal inhibitory concentration (IC50) was 6.03 nM at human CRF1 receptors [2] (Log IC50 as printed (negative sign), read-out: Log IC50 ± SE (converted)) and 6.1 nM on human CRF1 receptors [2] (read-out: IC50).
In the case of `CCCN(CC1CC1)c1nc(C)nc2c1s/c(=N\C)n2-c1ccc(Cl)cc1Cl` [Compound 5, 7-(N-Propyl-N-(cyclopropylmethyl))amino-2-(methylimino)-5-methyl-3-(2,4-dichlorophenyl)-2,3-dihydrothiazolo[4,5-d]pyrimidine], on human CRF1 receptors [1], the “% inhibition of [125I]-Tyr0 sauvagine-specific binding” value (“% inhibition” for short) is “significantly higher inhibitory effects than compounds 9 and 17”; the inhibition at 0.1 µM is more than 50%. Also, the IC50 at human CRF1 receptors [2] (read-out: IC50) came to 11.1 nM.
Compound `CN=c1sc2c(N(CCOC)CCOC)nc(C)nc2n1-c1ccc(C(C)C)cc1Br` [Compound 10, 7-(N,N-Bis(2-methoxyethyl)amino)-2-(methylimino)-5-methyl-3-(2-bromo-4-isopropylphenyl)-2,3-dihydrothiazolo[4,5-d]pyrimidine] returned an inhibition at 0.1 µM at human CRF1 receptors [1] of more than 50%. The IC50 at human CRF1 receptors [2] (read-out: IC50) was 31 nM.
On to `CCCCCN(CCCCC)c1nc(C)nc2c1sc(=NC)n2-c1ccc(C(C)C)cc1Br` [Compound 11, 7-(N,N-Dipentylamino)-2-(methylimino)-5-methyl-3-(2-bromo-4-isopropylphenyl)-2,3-dihydrothiazolo[4,5-d]pyrimidine], for which, on human CRF1 receptors [1], the “% inhibition” value is “reduced activity compared to compounds 10 and 13”.
As to `CCCCN(CC)c1nc(C)nc2c1sc(=NC)n2-c1ccc(C)cc1C` [Compound 14, 7-(N-Butyl-N-ethylamino)-2-(methylimino)-5-methyl-3-(2,4-dimethylphenyl)-2,3-dihydrothiazolo[4,5-d]pyrimidine], the inhibition at 0.1 µM at human CRF1 receptors [1] was more than 50%. For the same compound, the IC50 on human CRF1 receptors [2] (read-out: IC50) came to 144 nM.
With `CCCC(CCC)Nc1nc(C)nc2c1sc(=NC)n2-c1ccc(C)cc1C` [Compound 19, 7-(N-Heptan-4-yl)amino-2-(methylimino)-5-methyl-3-(2,4-dimethylphenyl)-2,3-dihydrothiazolo[4,5-d]pyrimidine], the inhibition at 0.1 µM on human CRF1 receptors [1] is more than 50%. In addition, the IC50 at human CRF1 receptors [2] (read-out: IC50) stood at 41.1 nM.
On human CRF1 receptors [1], `CCCCN(CC)c1nc(C)nc2c1sc(=NC)n2-c1ccc(OC)cc1C` [Compound 20, 7-(N-Butyl-N-ethylamino)-2-(methylimino)-5-methyl-3-(2-methyl-4-methoxylphenyl)-2,3-dihydrothiazolo[4,5-d]pyrimidine] registered an inhibition at 0.1 µM of more than 50%. Besides, at human CRF1 receptors [2] (read-out: IC50), the half-maximal inhibitory concentration (IC50) stood at 9.16 nM.
Compound `CCCN(CCC)c1nc(C)nc2c1sc(=NC)n2-c1ccc(OC)cc1C` [Compound 21, 7-(N,N-Dipropylamino)-2-(methylimino)-5-methyl-3-(2-methyl-4-methoxylphenyl)-2,3-dihydrothiazolo[4,5-d]pyrimidine] had an inhibition at 0.1 µM on human CRF1 receptors [1] of more than 50%. For the same compound, the 50% inhibitory concentration (IC50) on human CRF1 receptors [2] (read-out: IC50) stood at 13.1 nM.
For `CCCN(CC1CC1)c1nc(C)nc2c1s/c(=N\C)n2-c1ccc(OC)cc1C` [Compound 22, 7-(N-Propyl-N-(cyclopropylmethyl))amino-2-(methylimino)-5-methyl-3-(2-methyl-4-methoxylphenyl)-2,3-dihydrothiazolo[4,5-d]pyrimidine], on human CRF1 receptors [1], the “% inhibition” value was “significantly higher inhibitory effects than compounds 9 and 17”; the inhibition at 0.1 µM was more than 50%. For the same compound, the IC50 on human CRF1 receptors [2] (read-out: IC50) came out at 91.6 nM.
On to `CCC(CC)Nc1nc(C)nc2c1sc(=NC)n2-c1ccc(OC)cc1C` [Compound 23, 7-(N-Pentan-3-yl)amino-2-(methylimino)-5-methyl-3-(2-methyl-4-methoxylphenyl)-2,3-dihydrothiazolo[4,5-d]pyrimidine], for which, on human CRF1 receptors [1], the inhibition at 0.1 µM is more than 50%. In addition, at human CRF1 receptors [2] (read-out: IC50), the IC50 came to 111 nM.
Take `CCCCN(CC)c1nc(C)nc2c1c(C)c(C)n2-c1c(C)cc(C)cc1C` [antalarmin, reference compound]: the IC50 on human CRF1 receptors [2] (read-out: IC50) amounted to 16.6 nM.
Turning to Corticotropin-releasing factor [CRF], in the assay with CRF1R, the “binding affinity to CRF1R relative to binding to CRF2R” value is listed as “almost eight times higher”.
